Patent US20230073512A1, “MODULATORS OF CULLIN 3 ADAPTOR KBTBD4 AS ANTI-CANCER COMPOUNDS” (UNIVERSITE DE MONTREAL, priority 2019, published 2023)
Like-named read-outs stand apart in the source and are kept apart here. Values belong to the compound of their own block, whether it stands above or below them. Residues, ends and D or L forms follow the SMILES beside them. *: point of attachment. Cbz = O=C(OCc1ccccc1)*

Experiments:
[1] = tested on: CB; assay: Cell proliferation, CB sample of Table 2; settings: read-out: Antineoplastic effect on cell proliferation, IC50
[2] = tested on: AML samples; assay: Cell proliferation of cancerous samples from patients
[3] = target: T1, RCOR1, LSD1, HDAC2 in CD34+ derived cord blood cells (Homo sapiens, UniProt O60341+Q92769+Q9UKL0); assay: Western Blot of CoREST members in CD34+ cells; type: cell-based; settings: UM171 500 nM / MG132 5 μM, 4 hrs
T1 construct: total proteins extracted from d3 expanded CD34+ derived cord blood cells; endogenous in cells; host or cells: d3 expanded human CD34+ cord blood derived cells (primary)
Experimental: FIG. 15A illustrate a Western Blot analysis of total proteins extracted from d3 expanded CD34+ derived cord blood cells exposed to DMSO, UM171 (500 nM) or UM171/MG132 (5 μM) for 4 hrs. Representative blot showing KBTBD4, RCOR1, LSD1, HDAC2, CUL3 and TUBA as loading control.
(§1) Total protein extraction was performed in lysis buffer (25 mM tris ph7.5, 150 mM NaCl, 1% NP-40, protease inhibitors).

[4] = target: T2, RCOR1, LSD1, HDAC2 in OCI-AML1 cells (Homo sapiens, UniProt O60341+Q92769+Q9UKL0); assay: Western Blot of CoREST members; type: cell-based; settings: OCI-AML1, UM171 250 nM plus MG132 10 μM or MLN2494 100 nM
T2 construct: nucleoplasmic proteins extracted from shLuc or shKBTBD4- transduced OCI-AML1 cells; endogenous in cells; host or cells: OCI-AML1 cells transduced with shLuc or shKBTBD4
Experimental: Representative blots (upper panel) showing KBTBD4, RCOR1, LSD1, HDAC2 and Nucleolin (NCL, loading control) protein levels. Quantification of RCOR1 protein levels were evaluated in 3 independent experiments (lower panel).
Representative blots (upper panel) showing CUL3, RCOR1 and TUBA (loading control) protein levels. Quantification of RCOR1 protein levels were evaluated in 2 independent experiments (lower panel).
as §1

[5] = tested on: H3K27Ac and H3K4me2 in OCI-AML5; assay: Flow cytometry of H3K27Ac, H3K4me2 and H3; type: cell-based; settings: OCI-AML5, 24 hrs; UM171 250 nM, Panobinostat 5 nM, TCP 10 μM
[6] = tested on: CD201 and CD86 in OCI-AML5; assay: FACS analysis of CD201 and CD86; type: cell-based; settings: OCI-AML5, 24 hrs; UM171 250 nM, Panobinostat 5 nM, TCP 10 μM
Experimental: (§2) Mouse anti-human antibodies were used to detect CD34 (APC or BV421-BD Biosciences), CD45RA (PE-BD Biosciences), CD86 (PerCP-eFluor710-eBioscience), CD90 (PECY7- BioLegend), and CD201 (APC-BioLegend). Flow cytometry acquisitions were performed on a Canto II cytometer (BD Biosciences) and data analysis was performed using FowJo software (Tree Star, Ashland, Oreg., USA) and GraphPad Prism software. Dead cells were excluded using 7AAD staining.

[7] = tested on: CD201 and CD86 in OCI-AML1 cells; assay: Flow cytometry of CD201 and CD86 surface expression; type: cell-based; settings: Panobinostat 5 nM, TCP 5 μM
Experimental: as §2

[8] = tested on: CD34+ cord blood cells; settings: 7 days culture, UM171 at 5 nM and LSD1 inhibitor (TCP)
Experimental: as §2

[9] = tested on: AML3; assay: Cell proliferation of cancerous cell lines; type: cell-based; settings: AML3; read-out: Antineoplastic effect of tested compounds on cell proliferation of cancerous AML3 cells, IC50
[10] = PK assays in mice, intravenous and oral
Experimental: PK assays were performed in mice (n=3). […] The following pharmacokinetic parameters were calculated.
The compounds were orally administered at 20 mg/kg and plasma samples were collected at 15, 30 minutes and 1, 2, 4, 6 and 8 hours after administration. The following pharmacokinetic parameters were calculated.

[11] = orally administered at 20 mg/kg

Structure (SMILES): CC(C)C[C@@H](C=O)NC(=O)[C@H](CC(C)C)NC(=O)[C@H](CC(C)C)NC(=O)OCc1ccccc1 [MG132] (Cbz-Leu-Leu-Leu-aldehyde)
UM171-induced loss of LSD1 and RCOR1 proteins under co-treatment [3]: abolishes the loss
UM171-induced loss of RCOR1 under co-treatment [4]: reduced

Structure (SMILES): N[C@@H]1C[C@H]1c1ccccc1 (racemic) [TCP, tranylcypromine]
H3K27Ac and H3K4me2 marks [5]: induces
CD201 and CD86 expression compared to DMSO [6]: upregulation
CD86 expression in shKBTBD4 expressing cells [7]: induces
CD34+, CD34+CD201+CD90+ and CD34+CD86+ subsets, combination with UM171 [8]: synergistic effect

Structure (SMILES): COC(=O)c1ccc2c(c1)[nH]c1nc(Cc3ccccc3)nc(Cl)c12
IC50 [9]: 1000 to 2000 nM

Structure (SMILES): COC(=O)c1ccc2c(c1)[nH]c1nc(Cc3ccccc3)nc(SCCCN3CCCCC3)c12
IC50 [9]: 2000 to 5000 nM

Structure (SMILES): COC(=O)c1ccc2c(c1)[nH]c1nc(C(=O)c3ccccc3)nc(NCCCN3CCCCC3)c12
IC50 [9]: 2000 to 5000 nM

Structure (SMILES): C#CCNCCCN(C)CCCNc1nc(Cc2ccccc2)nc2[nH]c3cc(C(=O)OC)ccc3c12
IC50 [9]: 1000 to 2000 nM

Structure (SMILES): CN(C)CCNc1ncnc2[nH]c3cc(-c4nnn(C)n4)ccc3c12
IC50 [9]: 500 to 1000 nM

Structure (SMILES): C#Cc1cccc(Cc2nc(NCCN(C)CCN)c3c(n2)[nH]c2cc(-c4nnn(C)n4)ccc23)c1
IC50 [9]: 2000 to 5000 nM

Structure (SMILES): COC(=O)c1ccc2c(c1)[nH]c1ncnc(N[C@H]3CC[C@H](N)CC3)c12
IC50 [9]: 1000 to 2000 nM

Structure (SMILES): COC(=O)c1ccc2c(c1)[nH]c1nc(Cc3ccccc3)nc(NCCNC3=NCCC3)c12
IC50 [9]: 500 to 1000 nM

Structure (SMILES): COC(=O)c1ccc2c(c1)[nH]c1nc(Cc3ccccc3)nc(NCCN(C)CCN)c12
IC50 [9]: 1000 to 2000 nM

Structure (SMILES): Cn1nnc(-c2ccc3c(c2)[nH]c2ncnc(NCCCNC(=O)C(F)(F)F)c23)n1
IC50 [9]: 2000 to 5000 nM

Structure (SMILES): COC(=O)c1ccc2c(c1)[nH]c1nc(Cc3ccccc3C)nc(NCCCN3CCCCC3)c12
IC50 [9]: 1000 to 2000 nM

Second part, led by results:

IC50 ([2]; read-out: Antineoplastic effect on cell proliferation, IC50, AML sample 04H063): 1000 to 10000 nM
IC50 ([2]; read-out: Antineoplastic effect on cell proliferation, IC50, AML sample 05H094): 1000 to 10000 nM
IC50 ([2]; read-out: Antineoplastic effect on cell proliferation, IC50, AML sample 05H149): 1000 to 10000 nM
IC50 ([2]; read-out: Antineoplastic effect on cell proliferation, IC50, AML sample 06H045): 1000 to 10000 nM
IC50 ([2]; read-out: Antineoplastic effect on cell proliferation, IC50, AML sample 06H088): 1000 to 10000 nM
IC50 ([2]; read-out: Antineoplastic effect on cell proliferation, IC50, AML sample 06H117): 1000 to 10000 nM
IC50 ([2]; read-out: Antineoplastic effect on cell proliferation, IC50, AML sample 07H005): 1000 to 10000 nM
IC50 ([2]; read-out: Antineoplastic effect on cell proliferation, IC50, AML sample 07H038): 1000 to 10000 nM
IC50 ([2]; read-out: Antineoplastic effect on cell proliferation, IC50, AML sample 07H045): 1000 to 10000 nM
IC50 ([2]; read-out: Antineoplastic effect on cell proliferation, IC50, AML sample 07H125): 1000 to 10000 nM
IC50 ([2]; read-out: Antineoplastic effect on cell proliferation, IC50, AML sample 07H135): 1000 to 10000 nM
IC50 ([2]; read-out: Antineoplastic effect on cell proliferation, IC50, AML sample 07H151): 1000 to 10000 nM
IC50 ([2]; read-out: Antineoplastic effect on cell proliferation, IC50, AML sample 08H018): 1000 to 10000 nM
IC50 ([2]; read-out: Antineoplastic effect on cell proliferation, IC50, AML sample 09H010): 1000 to 10000 nM
IC50 ([2]; read-out: Antineoplastic effect on cell proliferation, IC50, AML sample 09H046): 1000 to 10000 nM
IC50 ([2]; read-out: Antineoplastic effect on cell proliferation, IC50, AML sample 09H079): 1000 to 10000 nM
IC50 ([2]; read-out: Antineoplastic effect on cell proliferation, IC50, AML sample 09H115): 1000 to 10000 nM
IC50 ([2]; read-out: Antineoplastic effect on cell proliferation, IC50, AML sample 10H022): 1000 to 10000 nM
IC50 ([2]; read-out: Antineoplastic effect on cell proliferation, IC50, AML sample 10H127): 1000 to 10000 nM
IC50 ([2]; read-out: Antineoplastic effect on cell proliferation, IC50, AML sample 11H002): 1000 to 10000 nM
IC50 ([2]; read-out: Antineoplastic effect on cell proliferation, IC50, AML sample 11H046): 1000 to 10000 nM
IC50 ([2]; read-out: Antineoplastic effect on cell proliferation, IC50, AML sample 11H103): 1000 to 10000 nM
IC50 ([2]; read-out: Antineoplastic effect on cell proliferation, IC50, AML sample 12H045): 1000 to 10000 nM
IC50 ([2]; read-out: Antineoplastic effect on cell proliferation, IC50, AML sample 12H058): 1000 to 10000 nM
IC50 ([2]; read-out: Antineoplastic effect on cell proliferation, IC50, AML sample 12H096): 1000 to 10000 nM
IC50 ([2]; read-out: Antineoplastic effect on cell proliferation, IC50, AML sample 12H106): 1000 to 10000 nM
IC50 ([2]; read-out: Antineoplastic effect on cell proliferation, IC50, AML sample 12H151): 1000 to 10000 nM
IC50 ([2]; read-out: Antineoplastic effect on cell proliferation, IC50, AML sample 13H100): 1000 to 10000 nM
IC50 ([2]; read-out: Antineoplastic effect on cell proliferation, IC50, AML sample 13H150): 1000 to 10000 nM
Structure (SMILES): COC(=O)c1ccc2[nH]c3nc(Cc4ccccc4)nc(NCCCN4CCCCC4)c3c2c1 [UM134]
IC50 [1]: 1000 to 10000 nM

UM171-induced loss of RCOR1 under co-treatment [4]: normal
Structure (SMILES): NS(=O)(=O)OC[C@@H]1C[C@@H](n2ccc3c(N[C@H]4CCc5ccccc54)ncnc32)C[C@@H]1O [MLN2494]

IC50 [9]: < 500 nM
Structure (SMILES): CCNCCNc1nc(Cc2ccccc2)nc2[nH]c3cc(C(=O)OC)ccc3c12

area under the curve (AUC) [10, 11]: 1.2 µM·h
bioavailability (% F) [10, 11]: 19%
maximal time (tmax) [10, 11]: 48 min
Cmax ([10]; read-out: maximal concentration (Cmax), orally administered at 20 mg/kg): 200 nM
Structure (SMILES): COC(=O)c1ccc2c(c1)[nH]c1ncnc(NCCCN3CCCCC3)c12 [UM729]

IC50 [9]: 2000 to 5000 nM
Structure (SMILES): COC(=O)c1ccc2[nH]c3nc(Cc4ccccc4)nc(NCCCN4CCCCC4)c3c2c1 [drawing 103]

IC50 [9]: 1000 to 2000 nM
Structure (SMILES): Cn1nnc(-c2ccc3c(c2)[nH]c2ncnc(NCCCCN4CCCCC4)c23)n1
